Here are results for four compounds from PubChem BioAssay (NCI).

As usually defined, the GI50 is the concentration giving 50% growth inhibition. As usually defined, the TGI is the concentration at which net growth stops.

Common to all, as to test: DTP human tumour cell line panel, 48 h
The test system of test [1] is PC-3 prostate.
In test [2] the test system is TK-10 renal.
Test [3] concerns BT-549 breast.
In test [4] the test system is A498 renal.
The test system of test [5] is SF-268 CNS.
Test [6] deals with KM12 colon.
For test [7], the system named is NCI-H226 lung.
For test [8], the system named is COLO 205 colon.
Test [9] concerns UO-31 renal.
Test [10] has as its system IGROV1 ovarian.
The subject of test [11] is UACC-257 melanoma.
The subject of test [12] is HCC-2998 colon.
Test [13] concerns SK-MEL-5 melanoma.
For test [14], the system named is CAKI-1 renal.
The test system of test [15] is SK-OV-3 ovarian.
The subject of test [16] is HOP-92 NSCLC.
Test [17] concerns 786-0 renal.
For test [18], the system named is LOX IMVI melanoma.
In test [19] the test system is CCRF-CEM leukemia.
Test [20] relates to DU-145 prostate.
The subject of test [21] is SF-295 CNS.
In test [22] the test system is MOLT-4 leukemia.
Test [23] deals with UACC-62 melanoma.
Test [24] relates to HL-60(TB) leukemia.
Test [25] concerns M14 melanoma.
In test [26] the test system is K-562 leukemia.
The test system of test [27] is SR leukemia.
Test [28] relates to A549 NSCLC.
Test [29] relates to NCI-H522 lung.
Test [30] relates to SK-MEL-28 melanoma.
Test [31] deals with NCI-H460 lung.
Test [32] concerns RPMI-8226 leukemia.
Test [33] concerns EKVX NSCLC.
In test [34] the test system is OVCAR-4 ovarian.
Test [35] concerns ACHN renal.
The subject of test [36] is NCI-H23 lung.
For test [37], the system named is HCT-15 colon.
In test [38] the test system is HS 578T breast.
Test [39] deals with U251 CNS.
In test [40] the test system is HCT-116 colon.

Values after ≈ are worked out from the molar mass of the structure shown. Values joined by “and” are separate entries in the source; they are usually repeats but may differ in a detail not shown here. Equal entries are not always repeated.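 Values below derive from 48-hour exposures of cells grown in 96-well plates, with endpoints linearly interpolated between the two concentrations bracketing the appropriate inhibition level. At the GI50, growth is halved. Definition used: TGI = concentration required for complete inhibition of growth.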

`CC(=O)N1N=C(c2ccc(C)cc2)CC1c1cn(-c2ccccc2)nc1-c1cccc(Nc2ccnc3cc(Cl)ccc23)c1` (configuration not stated): the GI50 in [1], in [2], in [3], in [4], in test [5] and in test [6] was greater than 100 µM each time. Moreover, the GI50 in test [7], in test [8], in [9], in test [10], in [11] and in [12] was greater than 100 µM throughout. In addition, the GI50 in test [13], in [14] and in [15] was greater than 100 µM in each case. Also, the TGI in test [1], in test [2], in [3], in [4], in [5] and in test [6] was greater than 100 µM throughout. Further, the TGI in test [7], in test [8], in test [9], in [10], in [11] and in test [12] was greater than 100 µM throughout. In addition, the concentration for total growth inhibition (TGI) in [13], in [14] and in test [15] was greater than 100 µM each time.

With `COCCCC(NC(=O)C(CC(C)C)NC(=O)OCc1ccc(OC)cc1)C(=O)OC` (configuration not stated), the GI50 was 40.8 µg/mL (≈ 93 µM) in [16]; 80.6 µg/mL (≈ 184 µM) in [17]; 96.4 µg/mL in test [18]; 42.1 µg/mL (≈ 95.9 µM) in [19]; 77.6 µg/mL (≈ 177 µM) in test [20]; 83.3 µg/mL (≈ 190 µM) in test [21]. The GI50 was 39.4 µg/mL (≈ 89.9 µM) in test [22]; 71.3 µg/mL (≈ 163 µM) in test [23]; 26.9 µg/mL (≈ 61.3 µM) in test [24]; 50.5 µg/mL (≈ 115 µM) in [25]; 36 µg/mL (≈ 82.1 µM) in test [26]; 18.8 µg/mL (≈ 42.8 µM) in test [27]. For the same compound, the GI50 is 32.5 µg/mL in [12]; 61.1 µg/mL (≈ 139 µM) in [28]; 59.8 µg/mL (≈ 136 µM) in [29]; 47.1 µg/mL (≈ 107 µM) in [30]; 23 µg/mL in [31]; 27 µg/mL (≈ 61.6 µM) in [32]. For the same compound, the GI50 in [15] is 71.6 µg/mL. For the same compound, the TGI came to 65.4 µg/mL (≈ 149 µM) in [16]; 87.1 µg/mL in [19]; 60.1 µg/mL in [22]; 57.5 µg/mL (≈ 131 µM) in test [24]; 85.3 µg/mL in [25]; 81.5 µg/mL in test [26]. Further, the TGI amounted to 42.5 µg/mL in test [27]; 75.1 µg/mL in test [12]; 76.6 µg/mL (≈ 175 µM) in [30]; 46.2 µg/mL in test [31]; 70 µg/mL in test [32].

As to `COc1ccc2c(ccc3c(C(=O)NCCCN(C)CCCNC(=O)c4cn(C)c5c4ccc4cc(OC)ccc45)cn(C)c32)c1`, the TGI in [19] was greater than 100 µM; in [1], 2.88 µM; in [20], 3.17 µM; in test [4] it was greater than 100 µM; in test [33], 2.92 µM; in test [5], 3.38 µM. The TGI in test [6] is 2.9 µM; in test [34], 3.27 µM; in [8] it was 4.87 µM; in [22] it was greater than 100 µM; in test [23] it was 3.15 µM; in [35], 3.02 µM. For the same compound, the TGI in test [9] was 3.01 µM; in test [25] it was 2.94 µM; in test [36] it was 2.97 µM; in test [26], greater than 100 µM; in test [10] it was 2.86 µM; in test [11] it was 2.97 µM. The TGI stood at 2.97 µM in [12]; 2.79 µM in test [31]; 2.6 µM in test [37]; 5.89 µM in test [32]; 4.78 µM in test [38].

Turning to `O=C(Nc1cccc(-n2ccc3c(NC(=O)c4ccccc4)nccc32)c1)c1ccc(Cl)c(C(F)(F)F)c1`, the GI50 is 0.125 µM and 0.759 µM in test [39]; 0.163 µM and 0.612 µM in [18]; 0.143 µM and 0.95 µM in [1]; 0.136 µM and 0.513 µM in test [40]; 0.116 µM and 0.481 µM in [31]. Further, the TGI in test [33] was 17.1 µM and > 100 µM; in test [7], 10.2 µM and > 100 µM; in test [26] it was 6.77 µM and 50.9 µM; in test [27], 6.71 µM and 15.7 µM.
